Key:
BRAF^V600E = BRAF^V600E (Mus musculus, UniProt P28028, V585E); assay: BRAF^V600E inhibitory assay
Method: BRAFV600E inhibitory assay
V600E mutant BRAF kinase assay was performed to investigate the activity of tested compounds against BRAF. Mouse full-length GST-tagged BRAFV600E (7.5 ng, Invitrogen, PV3849) was pre-incubated with drug (1 µL) and assay dilution buffer (4 µL) for 60 min at 25 °C. In assay dilution buffer, a solution (5 µL) containing MgCl2 (30 mM), ATP (200 µM), recombinant human full length (200 ng) and N-terminal His-tagged MEK1 (Invitrogen) was added to start the assay, subsequent to incubation for 25 min at 25 °C. The assay was stopped using 5X protein denaturing buffer (LDS) solution (5 µL). To further denature the protein, heat (70° C) was applied for 5 min.
10 µL of each reaction was loaded into the precast plates and electrophoresis was allowed to proceed. After completion of electrophoresis, the front part of the precast gel plate (holding hot ATP) was cut and afterwards cast-off. The dried gel was developed using a phosphor screen.

EGFR = EGFR (Homo sapiens, UniProt P00533); assay: EGFR inhibitory assay
[1] = system: four human cancer cell lines (A-549, MCF-7, Panc-1, HT-29); assay: Antiproliferative assay, average over the four cancer cell lines (GI50); assay type: cell-based; conditions: average of the four cancer cell lines
Method: (§1) See Supplementary Materials.
(§2) 4.2.1.2. Assay for antiproliferative effect
To explore the antiproliferative potential of compounds propidium iodide fluorescence assay was performed using different cell lines such as Panc-1 (pancreas cancer cell line), MCF-7 (breast […]
(§3) To calculate the total nuclear DNA, a fluorescent dye (propidium iodide, PI) is used which can attach to the DNA, thus offering a quick and precise technique. PI cannot pass through the cell membrane and its signal intensity can be considered as directly proportional to quantity of cellular
DNA. Cells whose cell membranes are damaged or have changed permeability are counted as dead ones. The assay was performed by seeding the cells of different cell lines at a density of 3000- […]
(§4) The medium was removed; the compounds were added to the plates at 10 μM concentrations (in 0.1% DMSO) in triplicates, followed by incubation for 48h. DMSO (0.1%) was used as control. After incubation, medium was removed followed by the addition of PI (25 μl, 50μg/mL in water/medium) to each well of the plates. At - 80 °C, the plates were allowed to freeze for 24 h, followed by thawing at 25 °C. A fluorometer (Polar-Star BMG Tech) was used to record the readings at excitation and emission wavelengths of 530 and 620 nm for each well. The percentage cytotoxicity of compounds was calculated using […]
Where ATC= Absorbance of treated cells and AC= Absorbance of control. […]
positive control in the assay.

[2] = system: colon cancer (HT-29) cell line; assay: Antiproliferative assay, HT-29; assay type: cell-based; conditions: Homo sapiens, read-out: Antiproliferative Activity IC50 ± SEM, HT-29
Method: as §2
(§5) To explore the antiproliferative potential of compounds propidium iodide fluorescence assay was performed using different cell lines such as Panc-1 (pancreas cancer cell line), MCF-7 (breast cancer cell line), HT-29 (colon cancer cell line) and A-549 (epithelial cancer cell line), respectively.
as §3
as §4, with “DNA. Cells whose cell membranes are damaged or have changed permeability are counted as dead ones. The assay was performed by seeding the cells of different cell lines at a density of 3000-7500 cells/well (in200μl medium) in culture plates followed by incubation for 24h at 37 °C in humidified 5%CO2/95% air atmospheric conditions. The medium” for “The medium”
(§6) Where ATC= Absorbance of treated cells and AC= Absorbance of control. Erlotinib was used as positive control in the assay.

[3] = system: pancreatic cancer (Panc-1) cell line; assay: Antiproliferative assay, Panc-1; assay type: cell-based; conditions: Homo sapiens, read-out: Antiproliferative Activity IC50 ± SEM, Panc-1
Method: as §2, §5, §3
as §4, with “DNA. Cells whose cell membranes are damaged or have changed permeability are counted as dead ones. The assay was performed by seeding the cells of different cell lines at a density of 3000-7500 cells/well (in200μl medium) in culture plates followed by incubation for 24h at 37 °C in humidified 5%CO2/95% air atmospheric conditions. The medium” for “The medium”
as §6

caspase-8 = assay: Caspase-8 level assay in A-549 cells; assay type: cell-based, human; conditions: for Caspase-8 Conc: control 0.10; for Caspase-8 Fold Change: vs control
Method: as §1
4.2.6. Caspase-8 activation assay […]
caspase8, and lysed with Cell Extraction Buffer. This lysate was diluted in Standard Diluent Buffer over the range of the assay and measured for human active caspase-8 content. (Cells are Plated in a density of 1.2 – 1.8 × 10,000 cells/well in a vo lume of 100µl complete growth medium + 100 ul of the tested compound per well in a 96-well plate for 24 hours before the enzyme assay for Tubulin.). The absorbance of each microwell was read on a spectro-photometer at 450 nm. A standard curve is prepared from 7human Caspase-8 standard dilutions and human Caspase-8 concentration determined. […]

Bcl-2 = Bcl-2 level assay in A-549 cells; assay type: cell-based, human; conditions: for Bcl-2 Conc: control 5; for Bcl-2 Fold Reduction: vs control
Method: Compounds Va and Vg were explored further for their impact on caspase-8, Bax, and Bacl-2 levels against a human epithelial cancer cell line (A-549) using doxorubicin as a reference. See Supplementary Materials. […]
4.2.8. Bcl-2inhibition assay
Mix all reagents thoroughly without foaming before use. Wash the microwells twice with approximately 300 μL Wash Buffer per well with thorough aspiration of microwell contents between washes. Take caution not to scratch the surface of the microwells. After the last wash, empty the wells and tap microwell strips on absorbent pad or paper towel to remove excess Wash Buffer. Use the microwell strips immediately after washing or place upside down on a wet absorbent paper for not longer than 15 minutes. […] Add 100 μL of Sample […]
Diluent in duplicate to all standard wells and to the blank wells. Prepare standard (1:2 dilution) in duplicate ranging from 32 ng/mL to 0.5 ng/mL. Add 100 μL of Sample Diluent, in duplicate, to the blank wells. Add 80 μL of Sample Diluent, in duplicate, to the sample wells. Add 20 μL of each Sample, in duplicate, to the designated wells. Add 50 μL of diluted biotin-conjugate to all wells, including the blank wells. Cover with a plate cover and incubate at room temperature, on a microplate shaker at 100 rpm if available, for 2 hours. Remove plate cover and empty the wells.
Wash microwell strips 3 times as described in step 2. Add 100 μL of diluted Streptavidin-HRP to all wells, including the blank wells. Cover with a plate cover and incubate at room temperature, on a microplate shaker at 100 rpm if available, for 1 hour. Remove plate cover and empty the wells.
Wash microwell strips 3 times as described in step 2. Proceed to the next step. Pipette 100 μl of mixed TMB Substrate Solution to all wells, including the blanks. Incubate the microwell strips at room temperature (18° to 25°C) for about 15 minutes, if available on a rotator set at 100 rpm.
Avoid direct exposure to intense light. The point, at which the substrate reaction is stopped, is often determined by the ELISA reader. Many ELISA readers record absorbance only up to 2.0
O.D. Therefore, the color development within individual microwells must be watched by the person running the assay and the substrate reaction stopped before positive wells are no longer properly detectable. Stop the enzyme reaction by quickly pipetting 100 μL of Stop Solution into each well, including the blank wells. It is important that the Stop Solution is spread quickly and uniformly throughout the microwells to completely inactivate the enzyme. Results must be read immediately after the Stop Solution is added or within one hour if the microwell strips are stored at 2 - 8°C in the dark. Read absorbance of each microwell on a spectrophotometer using 450 nm as the primary wavelength.

Chain of BRAF^V600E (P28028 whole entry V585E): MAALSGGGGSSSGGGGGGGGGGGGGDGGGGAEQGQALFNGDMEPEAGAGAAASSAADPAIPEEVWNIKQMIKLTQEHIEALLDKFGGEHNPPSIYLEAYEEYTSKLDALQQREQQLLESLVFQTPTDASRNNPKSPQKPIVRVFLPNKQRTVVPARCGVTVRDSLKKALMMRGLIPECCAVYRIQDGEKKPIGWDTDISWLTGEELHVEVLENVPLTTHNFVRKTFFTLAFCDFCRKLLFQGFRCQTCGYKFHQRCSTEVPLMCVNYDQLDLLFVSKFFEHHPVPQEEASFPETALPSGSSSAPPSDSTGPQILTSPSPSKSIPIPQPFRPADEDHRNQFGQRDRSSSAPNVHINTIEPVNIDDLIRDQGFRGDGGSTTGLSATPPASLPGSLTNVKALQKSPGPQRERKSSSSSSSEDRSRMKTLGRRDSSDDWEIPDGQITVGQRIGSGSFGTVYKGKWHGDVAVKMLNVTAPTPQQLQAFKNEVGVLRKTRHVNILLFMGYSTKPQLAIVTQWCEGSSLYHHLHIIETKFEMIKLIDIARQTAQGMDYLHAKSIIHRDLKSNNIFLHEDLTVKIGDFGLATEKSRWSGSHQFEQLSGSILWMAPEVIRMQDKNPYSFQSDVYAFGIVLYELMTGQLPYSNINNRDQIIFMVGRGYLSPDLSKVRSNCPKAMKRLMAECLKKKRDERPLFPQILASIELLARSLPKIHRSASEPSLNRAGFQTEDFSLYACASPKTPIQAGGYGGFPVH
Chain of EGFR (P00533 669-1210): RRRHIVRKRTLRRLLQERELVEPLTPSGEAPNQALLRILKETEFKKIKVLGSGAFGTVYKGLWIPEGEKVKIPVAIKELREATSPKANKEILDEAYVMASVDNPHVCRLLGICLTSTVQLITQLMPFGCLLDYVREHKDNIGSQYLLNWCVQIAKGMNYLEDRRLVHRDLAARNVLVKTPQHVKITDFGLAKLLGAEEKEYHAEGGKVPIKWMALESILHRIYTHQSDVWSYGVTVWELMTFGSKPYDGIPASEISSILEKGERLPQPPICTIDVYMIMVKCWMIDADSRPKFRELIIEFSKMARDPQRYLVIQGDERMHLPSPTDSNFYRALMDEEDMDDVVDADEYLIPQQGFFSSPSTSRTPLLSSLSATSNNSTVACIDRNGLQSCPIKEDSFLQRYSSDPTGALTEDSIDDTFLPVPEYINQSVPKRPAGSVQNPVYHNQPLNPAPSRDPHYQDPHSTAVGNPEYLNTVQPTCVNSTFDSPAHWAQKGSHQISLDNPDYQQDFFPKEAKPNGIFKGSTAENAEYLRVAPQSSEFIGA

CO/C=C/c1c(C(=O)NCC(c2ccccc2)c2c(-c3ccccc3)[nH]c3ccccc23)[nH]c2ccc(Cl)cc12 (stereo not drawn) [Compound Vg, (E)-5-Chloro-3-(2-methoxyvinyl)-N-(2-phenyl-2-(2-phenyl-1H-indol-3-yl)ethyl)-1H-indole-2-carboxamide]
IC50 (BRAF^V600E): 83 ± 6 nM
IC50 (EGFR): 79 ± 6 nM
GI50 [1]: 31 nM
IC50 [2]: 30 ± 2 nM
IC50 [3]: 30 ± 2 nM
Caspase-8 Conc (caspase-8): 2.20 ng/mL
Caspase-8 Fold Change (caspase-8): 22
Bcl-2 Conc (Bcl-2): 0.85 ng/mL
Bcl-2 Fold Reduction (Bcl-2): 6

O=C(NCC(c1ccccc1)c1c(-c2ccccc2)[nH]c2ccccc12)c1cc2cc(Cl)ccc2[nH]1 (stereo not drawn) [Compound Va, 5-Chloro-N-(2-phenyl-2-(2-phenyl-1H-indol-3-yl)ethyl)-1H-indole-2-carboxamide]
IC50 (BRAF^V600E): 77 ± 6 nM
IC50 (EGFR): 71 ± 6 nM
GI50 [1]: 26 nM
IC50 [2]: 26 ± 2 nM
IC50 [3]: 26 ± 2 nM
Caspase-8 Conc (caspase-8): 3.50 ng/mL
Caspase-8 Fold Change (caspase-8): 35
Bcl-2 Conc (Bcl-2): 0.75 ng/mL
Bcl-2 Fold Reduction (Bcl-2): 7
